System: ADP-induced human platelet aggregation
Experiment: Inhibition of ADP-mediated platelet aggregation in vitro using platelet-rich plasma (PRP assay)
Format: cell-based
Conditions: 5 min; human platelet-rich plasma, 2 μM ADP, 96-well microtiter, OD 650 nm at 5 min; read-out: Activity in the PRP assay
Description: This Example Provides an Assay for the Inhibition of ADP-Mediated Platelet Aggregation In Vitro Using Platelet-Rich Plasma (PRP)
Platelet-rich plasma (PRP) is prepared by centrifugation at 160×g for 20 minutes at room temperature. PRP is collected, and the platelet concentration is determined using a Coulter counter or hemocytometer (platelet concentration should be 2-4×10^8 platelets per mL).
Inhibition of ADP-dependent aggregation is preferably determined in 96-well flat-bottom microtiter plates using a microtiter plate shaker and plate reader similar to the procedure described by Frantantoni et al., Am. J. Clin. Pathol. […] All steps are performed at room temperature. The total reaction volume of 0.2 mL/well includes: PRP (˜6×10^7 total platelets in the presence of plasma), serial dilutions of test compounds (buffer for control wells) in 0.6% DMSO. After about 5 minutes preincubation at room temperature, ADP is added to a final concentration of 2 μM which induces submaximal aggregation. Buffer is added instead of ADP to one set of control wells (ADP-control). The OD of the samples is then determined at 650 nm using a microtiter plate reader (Softmax, Molecular Devices, Menlo Park, Calif.) resulting in the 0 minute reading. The plates are then agitated for 5 min on a microtiter plate shaker and the 5 minute reading is obtained in the plate reader. Aggregation is calculated from the decrease of OD at 650 nm at t=5 minutes compared to t=0 minutes and is expressed as % of the decrease in the ADP control samples after correcting for changes in the unaggregated control samples.

**Q.** Which IC50 does the source give for `CNc1cc2ccn(-c3cnc(NC(=O)NS(=O)(=O)c4ccc(Cl)s4)c(C)c3)c(=O)c2cc1F` [Example 60, 5-chloro-N-[({5-[7-fluoro-6-(methylamino)-1-oxoisoquinolin-2(1H)-yl]-3-methylpyridin-2-yl}amino)carbonyl]thiophene-2-sulfonamide] here?
**A.** Its IC50 is under 10 µM.

**Q.** `CNc1cc2ccn(-c3cnc(NC(=O)NS(=O)(=O)c4ccc(Cl)s4)nc3)c(=O)c2cc1F` [Example 61, 5-chloro-N-[({5-[7-fluoro-6-(methylamino)-1-oxoisoquinolin-2(1H)-yl]pyrimidin-2-yl}amino)carbonyl]thiophene-2-sulfonamide] was tested. Which IC50 did it give?
**A.** The IC50 was under 10 µM.

**Q.** Which IC50 does the source give for `CNc1cc2ccn(-c3ccc(NC(=O)NS(=O)(=O)c4ccc(Cl)s4)cc3COC(C)=O)c(=O)c2cc1F` [Example 62, 5-[({[(5-chlorothien-2-yl)sulfonyl]amino}carbonyl)amino]-2-[7-fluoro-6-(methylamino)-1-oxoisoquinolin-2(1H)-yl]benzyl acetate] here?
**A.** Its IC50 is 10 to 30 µM.

**Q.** With `CNc1cc2ccn(-c3ccc(NC(=O)NS(=O)(=O)c4ccc(Cl)s4)cc3CO)c(=O)c2cc1F` [Example 63, 5-chloro-N-({[4-[7-fluoro-6-(methylamino)-1-oxoisoquinolin-2(1H)-yl]-3-(hydroxymethyl)phenyl]amino}carbonyl)thiophene-2-sulfonamide] as the molecule, how does the IC50 read?
**A.** Its IC50 is under 10 µM.

**Q.** Which IC50 does the source give for `CCOC(=O)c1cc(NC(=O)NS(=O)(=O)c2ccc(Cl)s2)ccc1-n1ccc2cc(NC)c(F)cc2c1=O` [Example 65, ethyl 5-[({[(5-chlorothien-2-yl)sulfonyl]amino}carbonyl)amino]-2-[7-fluoro-6-(methylamino)-1-oxoisoquinolin-2(1H)-yl]benzoate] here?
**A.** Its IC50 is 10 to 30 µM.

**Q.** How did the IC50 turn out when `CNc1cc2ccn(-c3ccc(NC(=O)NS(=O)(=O)c4ccc(Cl)s4)cc3C#N)c(=O)c2cc1F` [Example 67, 5-chloro-N-[({3-cyano-4-[7-fluoro-6-(methylamino)-1-oxoisoquinolin-2(1H)-yl]phenyl}amino)carbonyl]thiophene-2-sulfonamide] was run?
**A.** The IC50 was 10 to 30 µM.

**Q.** Which IC50 does the source give for `CNc1cc2ccn(-c3ccc(NC(=O)NS(=O)(=O)c4ccc(Cl)s4)cc3C(N)=O)c(=O)c2cc1F` [Example 68, 5-[({[(5-chlorothien-2-yl)sulfonyl]amino}carbonyl)amino]-2-[7-fluoro-6-(methylamino)-1-oxoisoquinolin-2(1H)-yl]benzamide] here?
**A.** Its IC50 is 10 to 30 µM.

**Q.** For `CNc1cc2ccn(-c3ccc(NC(=O)NS(=O)(=O)c4ccc(Cl)s4)cc3C(C)=O)c(=O)c2cc1F` [Example 70, N-[({3-acetyl-4-[7-fluoro-6-(methylamino)-1-oxoisoquinolin-2(1H)-yl]phenyl}amino)carbonyl]-5-chlorothiophene-2-sulfonamide], which IC50 is on record?
**A.** The IC50 was 10 to 30 µM.

**Q.** Which IC50 does the source give for `CCc1cc(NC(=O)NS(=O)(=O)c2ccc(Cl)s2)ccc1-n1ccc2cc(NC)c(F)cc2c1=O` [Example 73, 5-chloro-N-[({3-ethyl-4-[7-fluoro-6-(methylamino)-1-oxoisoquinolin-2(1H)-yl]phenyl}amino)carbonyl]thiophene-2-sulfonamide] here?
**A.** The IC50 was 10 to 30 µM.

**Q.** `CNc1cc2ccn(-c3ccc(NC(=O)NS(=O)(=O)c4ccc(Cl)s4)cc3C(C)O)c(=O)c2cc1F` (stereo not drawn) [Example 74, 5-chloro-N-({[4-[7-fluoro-6-(methylamino)-1-oxoisoquinolin-2(1H)-yl]-3-(1-hydroxyethyl)phenyl]amino}carbonyl)thiophene-2-sulfonamide] was tested. Which IC50 did it give?
**A.** Its IC50 is over 30 µM.

**Q.** Which IC50 does the source give for `CNc1cc2ccn(-c3ccc(NC(=O)NS(=O)(=O)c4ccc(Cl)s4)c(OC)c3)c(=O)c2cc1F` [Example 75, 5-chloro-N-[({4-[7-fluoro-6-(methylamino)-1-oxoisoquinolin-2(1H)-yl]-2-methoxyphenyl}amino)carbonyl]thiophene-2-sulfonamide] here?
**A.** The IC50 was under 10 µM.

**Q.** Which IC50 does the source give for `CNc1cc2ccn(-c3ccc(NC(=O)NS(=O)(=O)c4ccc(Cl)s4)c(OCOC)c3)c(=O)c2cc1F` [Example 76, 5-chloro-N-({[4-[7-fluoro-6-(methylamino)-1-oxoisoquinolin-2(1H)-yl]-2-(methoxymethoxy)phenyl]amino}carbonyl)thiophene-2-sulfonamide] here?
**A.** Its IC50 is under 10 µM.

**Q.** Which IC50 does the source give for `CNc1cc2ccn(-c3ccc(NC(=O)NS(=O)(=O)c4ccc(Cl)s4)c(O)c3)c(=O)c2cc1F` [Example 77, 5-chloro-N-[({4-[7-fluoro-6-(methylamino)-1-oxoisoquinolin-2(1H)-yl]-2-hydroxyphenyl}amino)carbonyl]thiophene-2-sulfonamide] here?
**A.** The IC50 was under 10 µM.

**Q.** Which IC50 does the source give for `CNc1cc2ccn(-c3ccc(NC(=O)NS(=O)(=O)c4ccc(Cl)s4)c(OCc4ccccc4)c3)c(=O)c2cc1F` [Example 79, N-[({2-(benzyloxy)-4-[7-fluoro-6-(methylamino)-1-oxoisoquinolin-2(1H)-yl]phenyl}amino)carbonyl]-5-chlorothiophene-2-sulfonamide] here?
**A.** Its IC50 is over 30 µM.

**Q.** For `CCCCNc1cc(-n2ccc3cc(NC)c(F)cc3c2=O)ccc1NC(=O)NS(=O)(=O)c1ccc(Cl)s1` [Example 80, N-[({2-(butylamino)-4-[7-fluoro-6-(methylamino)-1-oxoisoquinolin-2(1H)-yl]phenyl}amino)carbonyl]-5-chlorothiophene-2-sulfonamide], which IC50 is on record?
**A.** The IC50 was over 30 µM.

**Q.** Which IC50 does the source give for `CCc1cc(-n2ccc3cc(NC)c(F)cc3c2=O)ccc1NC(=O)NS(=O)(=O)c1ccc(Cl)s1` [Example 81, 5-chloro-N-[({2-ethyl-4-[7-fluoro-6-(methylamino)-1-oxoisoquinolin-2(1H)-yl]phenyl}amino)carbonyl]thiophene-2-sulfonamide] here?
**A.** Its IC50 is under 10 µM.

**Q.** Which IC50 does the source give for `CNc1cc2ccn(-c3ccc(NC(=O)NS(=O)(=O)c4ccc(Cl)s4)c(OCCOC(C)=O)c3)c(=O)c2cc1F` [Example 82, 2-{2-[({[(5-chlorothien-2-yl)sulfonyl]amino}carbonyl)amino]-5-[7-fluoro-6-(methylamino)-1-oxoisoquinolin-2(1H)-yl]phenoxy}ethyl acetate] here?
**A.** The IC50 was 10 to 30 µM.

**Q.** `CNc1cc2ccn(-c3ccc(NC(=O)NS(=O)(=O)c4ccc(Cl)s4)c(OCCO)c3)c(=O)c2cc1F` [Example 83, 5-chloro-N-({[4-[7-fluoro-6-(methylamino)-1-oxoisoquinolin-2(1H)-yl]-2-(2-hydroxyethoxy)phenyl]amino}carbonyl)thiophene-2-sulfonamide] was tested. Which IC50 did it give?
**A.** The IC50 was under 10 µM.

**Q.** How did the IC50 turn out when `CNc1cc2ccn(-c3ccc(NC(=O)NS(=O)(=O)c4ccc(Cl)s4)c(OC(C)C)c3)c(=O)c2cc1F` [Example 84, 5-chloro-N-[({4-[7-fluoro-6-(methylamino)-1-oxoisoquinolin-2(1H)-yl]-2-isopropoxyphenyl}amino)carbonyl]thiophene-2-sulfonamide] was run?
**A.** The IC50 was 10 to 30 µM.

**Q.** For `CNc1cc2ccn(-c3ccc(NC(=O)NS(=O)(=O)c4ccc(Cl)s4)c(C(F)F)c3)c(=O)c2cc1F` [Example 85, 5-chloro-N-[({2-(difluoromethyl)-4-[7-fluoro-6-(methylamino)-1-oxoisoquinolin-2(1H)-yl]phenyl}amino)carbonyl]thiophene-2-sulfonamide], which IC50 is on record?
**A.** Its IC50 is under 10 µM.

**Q.** How did the IC50 turn out when `CNc1cc2ccn(-c3ccc(NC(=O)NS(=O)(=O)c4ccc(Cl)s4)c(OCC4CC4)c3)c(=O)c2cc1F` [Example 86, 5-chloro-N-[({2-(cyclopropylmethoxy)-4-[7-fluoro-6-(methylamino)-1-oxoisoquinolin-2(1H)-yl]phenyl}amino)carbonyl]thiophene-2-sulfonamide] was run?
**A.** The IC50 was under 10 µM.

**Q.** `CNc1cc2ccn(-c3ccc(NC(=O)NS(=O)(=O)c4ccc(Cl)s4)c(OC(F)(F)F)c3)c(=O)c2cc1F` [Example 87, 5-chloro-N-({[4-[7-fluoro-6-(methylamino)-1-oxoisoquinolin-2(1H)-yl]-2-(trifluoromethoxy)phenyl]amino}carbonyl)thiophene-2-sulfonamide] was tested. Which IC50 did it give?
**A.** The IC50 was under 10 µM.

**Q.** Which IC50 does the source give for `CNc1cc2ccn(-c3ccc(NC(=O)NS(=O)(=O)c4ccc(Cl)s4)c(C(C)=O)c3)c(=O)c2cc1F` [Example 88, N-[({2-acetyl-4-[7-fluoro-6-(methylamino)-1-oxoisoquinolin-2(1H)-yl]phenyl}amino)carbonyl]-5-chlorothiophene-2-sulfonamide] here?
**A.** Its IC50 is under 10 µM.

**Q.** With `CNc1cc2ccn(-c3ccc(NC(=O)NS(=O)(=O)c4ccc(Cl)s4)c(OCC(F)(F)F)c3)c(=O)c2cc1F` [Example 89, 5-chloro-N-({[4-[7-fluoro-6-(methylamino)-1-oxoisoquinolin-2(1H)-yl]-2-(2,2,2-trifluoroethoxy)phenyl]amino}carbonyl)thiophene-2-sulfonamide] as the molecule, how does the IC50 read?
**A.** Its IC50 is under 10 µM.

**Q.** For `CCOc1cc(-n2ccc3cc(NC)c(F)cc3c2=O)ccc1NC(=O)NS(=O)(=O)c1ccc(Cl)s1` [Example 90, 5-chloro-N-[({2-ethoxy-4-[7-fluoro-6-(methylamino)-1-oxoisoquinolin-2(1H)-yl]phenyl}amino)carbonyl]thiophene-2-sulfonamide], which IC50 is on record?
**A.** Its IC50 is under 10 µM.

**Q.** With `CNc1cc2ccn(-c3ccc(NC(=O)NS(=O)(=O)c4ccc(Cl)s4)c(OCCOC)c3)c(=O)c2cc1F` [Example 91, 5-chloro-N-({[4-[7-fluoro-6-(methylamino)-1-oxoisoquinolin-2(1H)-yl]-2-(2-methoxyethoxy)phenyl]amino}carbonyl)thiophene-2-sulfonamide] as the molecule, how does the IC50 read?
**A.** Its IC50 is under 10 µM.

**Q.** `CNc1cc2ccn(-c3ccc(NC(=O)NS(=O)(=O)c4ccc(Cl)s4)c(C(C)C)c3)c(=O)c2cc1F` [Example 92, 5-chloro-N-[({4-[7-fluoro-6-(methylamino)-1-oxoisoquinolin-2(1H)-yl]-2-isopropylphenyl}amino)carbonyl]thiophene-2-sulfonamide] was tested. Which IC50 did it give?
**A.** Its IC50 is 10 to 30 µM.

From patent US7294635B2 (Portola Pharmaceuticals, Inc., priority 2003, dated 2007)
